Data as given in patent publication US20050124694A1, “Method of accelerating metabolism of alcohol” (priority 2003, published 2005).

Assay: Breath sample analysis for alcohol (BAC) in volunteers after 5 glasses of wine
Assay type: in vivo, human
Settings: for BAC AFTER 30 MIN.: 30 min after 5 glasses of wine on an empty stomach together with a fifty gram dose; for BAC AFTER 30 MIN. / BAC AFTER 60 MIN / BAC AFTER 90 MIN / BAC AFTER 120 MIN / BAC AFTER 150 MIN / BAC AFTER 180 MIN / BAC AFTER 210 MIN / BAC AFTER 240 MIN: breath sample; for BAC AFTER 60 MIN: 60 min after 5 glasses of wine on an empty stomach together with a fifty gram dose; for BAC AFTER 90 MIN: 90 min after 5 glasses of wine on an empty stomach together with a fifty gram dose; for BAC AFTER 120 MIN: 120 min after 5 glasses of wine on an empty stomach together with a fifty gram dose; for BAC AFTER 150 MIN: 150 min after 5 glasses of wine on an empty stomach together with a fifty gram dose; for BAC AFTER 180 MIN: 180 min after 5 glasses of wine on an empty stomach together with a fifty gram dose; for BAC AFTER 210 MIN: 210 min after 5 glasses of wine on an empty stomach together with a fifty gram dose; for BAC AFTER 240 MIN: 240 min after 5 glasses of wine on an empty stomach together with a fifty gram dose; for Effect on the consumer's BAC as measured by the test, compared with no administration: fifty gram dose with 5 glasses of wine
Method: A commercially available instrument was used to analyze breath samples provided by volunteers for alcohol. TEN volunteers each consumed 5 GLASSES OF WINE on an empty stomach together with a FIFTY GRAM dose of one or more compounds of formula (I) as tabulated below. A control group of volunteers WAS not given any of the compound. The volunteers then provided _[…] breath samples for analysis at intervals of 30 minutes. THE COMPOUNDS GIVEN AND THE SAC LEVELS READ AT EACH SAMPLING ARE TABULATED BELOW

| Structure (SMILES) | BAC AFTER 30 MIN. [%] | BAC AFTER 60 MIN [%] | BAC AFTER 90 MIN [%] | BAC AFTER 120 MIN [%] | BAC AFTER 150 MIN [%] | BAC AFTER 180 MIN [%] | BAC AFTER 210 MIN [%] | BAC AFTER 240 MIN [%] | Effect on the consumer's BAC as measured by the test, compared with no administration |
| --- | --- | --- | --- | --- | --- | --- | --- | --- | --- |
| NC(=O)CC[C@H](N)C(=O)O [III] | 0.09 | 0.08 | 0.08 | 0.07 | 0.07 | 0.05 | 0.04 | 0.03 | helps to diminish the consumer's BAC as measured by the test more rapidly than without such administration |
| CC(=O)O[C@H](CC(=O)[O-])C[N+](C)(C)C [compound II] | 0.10 | 0.09 | 0.08 | 0.08 | 0.07 | 0.06 | 0.04 | 0.03 | helps to diminish the consumer's BAC as measured by the test more rapidly than without such administration |
